We go through 16 molecules from patent publication US11236055B2 (Venenum Biodesign, LLC, priority 2016, dated 2022).

Data set [1] can be described thus: Pharmacokinetic profile in mice. In kind it is in vivo. Particulars: mouse; fasted male Hilltop mice, 10 mg/kg oral gavage, plasma, mean of three mice. In short, it runs like this:
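Fasted 8-week-old male Hilltop mice received 10 mg/kg by oral gavage in 20% PEG400/80% 0.5% CMC + 0.25% Tween-80. Plasma was sampled at 0–4 h, with at most 3 draws per mouse, and measured by LC-MS/MS (0.1–500 ng/mL standards). Cmax and AUC were derived non-compartmentally; values are means of three mice.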

Data set [2] relates to GLP-1 levels in the blood of male C57BL/6NTac mice. Description: In vivo mouse GLP-1 study, single oral dose. Particulars: 10 mg/kg oral, 4 h post-dose, sitagliptin 3 mg/kg pre-dose. The protocol: In Vivo Mouse GLP-1 Study
12-14 week old male C57BL/6NTac (Taconic) mice were divided into experimental groups (n=6) by randomizing mice based on pre-fasting body weight and then were fasted overnight. On experiment day, all mice were dosed with 3 mg/kg sitagliptin via oral gavage exactly 1 hour before oral gavage dosing of vehicle (0.5% carboxymethylcellulose (medium viscosity)+0.25% Tween-80) or 10 mg/kg compound in vehicle. Four (4) hours following the administration of compound, blood was collected via cardiac puncture. For the GLP-1 assay, 200-250 μL of blood was placed in an EDTA K^2+ tube containing 5 μL of 40 mg/mL aprotinin (Sigma A1153) and 1 μL of 10 mM sitagliptin (Sigma S8576) and plasma was separated by centrifugation. Plasma samples were stored at −20° C. until analysis. The active form of GLP-1 [GLP-1 (7-36) amide] was analyzed using Meso Scale Discovery System according to the manufacturer's directions (item number K150HYC). Values of p<0.05 are considered statistically significant.
The active GLP-1 assay results from the mice in vivo study are shown in Table 36 and FIG. 1, expressed as fold change over vehicle.

For the next data set, the target named is T1, mouse TGR5 receptor (Mus musculus, UniProt Q80SS6).
T1 construct: expressed in transfected cells; host or cells: HEK293-EBNA (293 c18, ATCC CRL10852), Hygromycin B selection
T1 sequence (Q80SS6 1-329): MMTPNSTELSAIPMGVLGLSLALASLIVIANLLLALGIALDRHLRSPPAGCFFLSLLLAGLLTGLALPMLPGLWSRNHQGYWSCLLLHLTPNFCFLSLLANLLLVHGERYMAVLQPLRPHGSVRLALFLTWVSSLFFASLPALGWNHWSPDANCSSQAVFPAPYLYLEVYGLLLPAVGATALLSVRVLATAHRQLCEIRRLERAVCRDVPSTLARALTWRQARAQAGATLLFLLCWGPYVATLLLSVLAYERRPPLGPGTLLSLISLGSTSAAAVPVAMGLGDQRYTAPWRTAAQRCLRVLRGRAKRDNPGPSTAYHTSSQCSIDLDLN
Description: Mouse TGR5 cAMP production assay (HTRF, Cisbio cAMP HiRange). The conditions noted are these: HEK293-EBNA cells overexpressing mouse TGR5, HTRF cAMP HiRange; coded A-D. In kind it is cell-based. In short, it runs like this: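 cAMP read by HTRF competition after 1 h room-temperature compound exposure of mouse TGR5-overexpressing HEK293-EBNA cells. Cells were suspended in serum-free DMEM containing 500 μM IBMX; compounds ran as 12-point half-log dilutions in duplicate; EC50 derived.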
On the technique in general: cAMP levels reflect the balance of adenylyl cyclase and phosphodiesterase activity.

One may read the Cmax as the highest concentration seen after dosing. Usually EC50 stands for the concentration that produces a half-maximal response. Higher therefore signals a need for much substance.

Where only a bound is given, the exact number is not on record here.

Consider `CCc1cnccc1-c1cccc(C(C)(C)N(CCCC(=O)NCCS(=O)(=O)O)S(=O)(=O)c2ccccc2C(F)(F)F)c1` [Compound 20, 2-(4-(N-(2-(3-(3-ethylpyridin-4-yl)phenyl)propan-2-yl)-2-(trifluoromethyl)-phenylsulfonamido)butanamido)ethanesulfonic acid], for which the concentration in data set [1] peaked (Cmax) at 5 ng/mL. Moreover, in data set [2], the “Fold Increase (active GLP-1, fold change over vehicle)” value is listed as 1.0. On mouse TGR5 receptor, this molecule showed an EC50 of less than 100 nM.
Molecule `Cc1cnccc1-c1cccc(C(C)(C)N(CCCC(=O)NCCS(=O)(=O)O)S(=O)(=O)c2ccccc2C(F)(F)F)c1` [Compound 20AA, 2-(4-(N-(2-(3-(3-methylpyridin-4-yl)phenyl)propan-2-yl)-2-(trifluoromethyl)phenylsulfonamido)butanamido)ethanesulfonic acid] returned a peak concentration (Cmax) in data set [1] of 7.2 ng/mL. The “Fold Increase (active GLP-1, fold change over vehicle)” value in data set [2] stood at 3.3. The molecule further came in with an EC50 at mouse TGR5 receptor of less than 100 nM.
As for `CCc1cnccc1-c1cccc(C(C)(C)N(CCCC(=O)NCCS(=O)(=O)O)S(=O)(=O)c2cccc(Cl)c2C)c1` [Compound 20AC, 2-(4-(3-chloro-N-(2-(3-(3-ethylpyridin-4-yl)phenyl)propan-2-yl)-2-methylphenylsulfonamido)butanamido)ethanesulfonic acid], the highest level in data set [1] (Cmax) was 7.8 ng/mL. Besides, the “Fold Increase (active GLP-1, fold change over vehicle)” value in data set [2] came out at 1.2. For the same molecule, the concentration for a half-maximal effect (EC50) on mouse TGR5 receptor was less than 100 nM.
The like results for `Cc1cnccc1-c1cccc(C(C)(C)N(CCCC(=O)NCCCS(=O)(=O)O)S(=O)(=O)c2cccc(Cl)c2C)c1` [Compound 20AD, 3-(4-(3-chloro-2-methyl-N-(2-(3-(3-methylpyridin-4-yl)phenyl)propan-2-yl)phenylsulfonamido)butanamido)propane-1-sulfonic acid] were, in that order, 2.5 ng/mL, 1.9 and less than 100 nM.
The like results for `Cc1cnccc1-c1cccc(C(C)(C)N(CCCC(=O)NC[C@@H](O)[C@H](O)[C@@H](O)[C@@H](O)CO)S(=O)(=O)c2cccc(Cl)c2C)c1` [Compound 20AF, 4-(3-chloro-2-methyl-N-(2-(3-(3-methylpyridin-4-yl)phenyl)propan-2-yl)phenylsulfonamido)-N-((2R,3S,4S,5S)-2,3,4,5,6-pentahydroxyhexyl)butanamide] were, in that order, 5.2 ng/mL, 0.8 and less than 100 nM.
`CCc1cnccc1-c1cccc([C@H](C)N(CCCC(=O)NCCCS(=O)(=O)O)S(=O)(=O)c2cccc(Cl)c2C)c1` [Compound 20AM, (S)-3-(4-(3-chloro-N-(1-(3-(3-ethylpyridin-4-yl)phenyl)ethyl)-2-methylphenylsulfonamido)butanamido)propane-1-sulfonic acid] yielded a Cmax in data set [1] of 0.9 ng/mL. In data set [2], the “Fold Increase (active GLP-1, fold change over vehicle)” value is listed as 2.3. This molecule registered a concentration giving a half-maximal response (EC50) at mouse TGR5 receptor of less than 100 nM.
In data set [1], `Cc1cnccc1-c1cccc(C(C)(C)N(CCCC(=O)NCCS(=O)(=O)NCC(=O)O)S(=O)(=O)c2cccc(Cl)c2C)c1` [Compound 20AW, (4-(3-chloro-2-methyl-N-(2-(3-(3-methylpyridin-4-yl)phenyl)propan-2-yl)phenylsulfonamido)-N-butanamidoethylsulfonamido)acetic acid] showed a Cmax of 2.8 ng/mL. In addition, in data set [2], the “Fold Increase (active GLP-1, fold change over vehicle)” value is reported as 1.1. At mouse TGR5 receptor, this molecule registered an EC50 of less than 100 nM.
In turn, `CCc1cnccc1-c1cccc([C@H](C)N(CCCC(=O)NCCS(=O)(=O)O)S(=O)(=O)c2ccccc2C(F)(F)F)c1` [Compound 20BF, (S)-2-(4-(N-(1-(3-(3-ethylpyridin-4-yl)phenyl)ethyl)-2-(trifluoromethyl)phenylsulfonamido)butanamido)ethanesulfonic acid] displayed a Cmax in data set [1] of 0.8 ng/mL. Besides, the “Fold Increase (active GLP-1, fold change over vehicle)” value in data set [2] turned out to be 2.9. For the same molecule, the half-maximal effective concentration (EC50) on mouse TGR5 receptor is less than 100 nM.
In data set [1], `CCc1cnccc1-c1cccc([C@H](C)N(CCCC(=O)NCCS(=O)(=O)NCC(=O)O)S(=O)(=O)c2ccccc2C(F)(F)F)c1` [Compound 20BG] had a Cmax of 0.3 ng/mL. For the same molecule, the “Fold Increase (active GLP-1, fold change over vehicle)” value in data set [2] came out at 4.4. Moreover, on mouse TGR5 receptor, the concentration giving a half-maximal response (EC50) was less than 100 nM.
As for `Cc1cnccc1-c1cccc([C@H](C)N(CCCC(=O)NCCS(=O)(=O)NCCCC(=O)O)S(=O)(=O)c2ccccc2C(F)(F)F)c1` [Compound 20BK], the highest level in data set [1] (Cmax) was 0.4 ng/mL. The “Fold Increase (active GLP-1, fold change over vehicle)” value in data set [2] stood at 1.3. Further, the EC50 on mouse TGR5 receptor is less than 100 nM.
Turning to `Cc1cnccc1-c1cccc([C@H](C)N(CCCCC(=O)NCCS(=O)(=O)NCC(=O)O)S(=O)(=O)c2ccccc2C(F)(F)F)c1` [Compound 20BL, (S) 2-(4-(N-(1-(3-(3-methylpyridin-4-yl)phenyl)ethyl)-2-(trifluoromethyl)phenylsulfonamidopentanamido)ethylsulfonamido)acetic acid], in data set [1], the peak concentration (Cmax) was 1.2 ng/mL. Also, the “Fold Increase (active GLP-1, fold change over vehicle)” value in data set [2] turned out to be 2.1. This molecule displayed an EC50 at mouse TGR5 receptor of less than 100 nM.
The like results for `Cc1cnccc1-c1cccc(C(C)(C)N(CCCC(=O)NCC(=O)O)S(=O)(=O)c2cccc(Cl)c2C)c1` [Compound 21AB, 2-(4-(3-chloro-2-methyl-N-(2-(3-(3-methylpyridin-4-yl)phenyl)propan-2-yl)phenylsulfonamido)butanamido)acetic acid] were, in that order, 19.4 ng/mL, 3.0 and less than 100 nM.
On to `CCc1cnccc1-c1cccc([C@H](C)N(CCCC(=O)NCCS(=O)(=O)O)S(=O)(=O)c2cccc(Cl)c2C)c1` [Compound 21AQ, (S)-2-(4-(3-chloro-N-(1-(3-(3-ethylpyridin-4-yl)phenyl)ethyl)-2-methylphenylsulfonamido)butanamido)ethanesulfonic acid], for which the maximum concentration (Cmax) in data set [1] came to 4.2 ng/mL. In data set [2], the “Fold Increase (active GLP-1, fold change over vehicle)” value was found to be 2.0. Also, at mouse TGR5 receptor, the EC50 was less than 100 nM.
As to `CCc1cnccc1-c1cccc([C@H](C)N(CCCC(=O)NCCS(=O)(=O)NCC(=O)O)S(=O)(=O)c2cccc(Cl)c2C)c1` [Compound 21AT, (S) 2-(3-(4-(3-chloro-2-methyl-N-(1-(3-(3-ethylpyridin-4-yl)phenyl)ethyl)phenylsulfonamido)butanamido)ethylsulfonamido)acetic acid], the peak level in data set [1] (Cmax) was 1.6 ng/mL. Also, the “Fold Increase (active GLP-1, fold change over vehicle)” value in data set [2] was 4.2. At mouse TGR5 receptor, this molecule gave an EC50 of less than 100 nM.
In data set [1], `Cc1cnccc1-c1cccc([C@H](C)N(CCCC(=O)NCCNS(=O)(=O)NCC(=O)O)S(=O)(=O)c2cccc(Cl)c2C)c1` [Compound 38] gave a Cmax of 3.6 ng/mL. This molecule came in with an EC50 on mouse TGR5 receptor of less than 100 nM.
The matching figures for `CCc1cnccc1-c1cccc(C2CN(C(=O)CS(=O)(=O)O)CCN2S(=O)(=O)c2cccc(Cl)c2C)c1` (stereo not shown) [Compound 49, 2-(4-((3-Chloro-2-methylphenyl)sulfonyl)-3-(3-(3-ethylpyridin-4-yl)phenyl)piperazin-1-yl)-2-oxoethanesulfonic acid]: 2.1 ng/mL and less than 100 nM.
